Laboratory results: PubChem BioAssay (NCI)
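How tested: cells in 96-well plates exposed to compound for 48 hours at five concentrations. Abbreviation: GI50, concentration required for 50% inhibition of growth. TGI is the concentration that stops growth completely.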

How the values were obtained:
Test in all cases: DTP human tumour cell line panel, 48 h; in the data active = GI50 below about 0.43 µM; inactive = the rest
KM12 colon = test system: KM12 colon
NCI-H226 lung = test system: NCI-H226 lung
MALME-3M melanoma = test system: MALME-3M melanoma
HCT-15 colon = test system: HCT-15 colon
UACC-257 melanoma = test system: UACC-257 melanoma
CAKI-1 renal = test system: CAKI-1 renal
COLO 205 colon = test system: COLO 205 colon
786-0 renal = test system: 786-0 renal
OVCAR-3 ovarian = test system: OVCAR-3 ovarian
SK-OV-3 ovarian = test system: SK-OV-3 ovarian
HL-60(TB) leukemia = test system: HL-60(TB) leukemia
SW-620 colon = test system: SW-620 colon
M14 melanoma = test system: M14 melanoma
SNB-19 CNS = test system: SNB-19 CNS
NCI-H522 lung = test system: NCI-H522 lung
DU-145 prostate = test system: DU-145 prostate
NCI/ADR-RES ovarian = test system: NCI/ADR-RES ovarian
BT-549 breast = test system: BT-549 breast
T-47D breast = test system: T-47D breast
UACC-62 melanoma = test system: UACC-62 melanoma
SR leukemia = test system: SR leukemia
MDA-MB-231 breast = test system: MDA-MB-231 breast
MCF7 breast = test system: MCF7 breast
SK-MEL-28 melanoma = test system: SK-MEL-28 melanoma
SF-268 CNS = test system: SF-268 CNS
U251 CNS = test system: U251 CNS
SK-MEL-2 melanoma = test system: SK-MEL-2 melanoma
HCT-116 colon = test system: HCT-116 colon
MDA-MB-435 = test system: MDA-MB-435
SK-MEL-5 melanoma = test system: SK-MEL-5 melanoma
IGROV1 ovarian = test system: IGROV1 ovarian
SF-295 CNS = test system: SF-295 CNS
K-562 leukemia = test system: K-562 leukemia
NCI-H23 lung = test system: NCI-H23 lung
HCC-2998 colon = test system: HCC-2998 colon
OVCAR-5 ovarian = test system: OVCAR-5 ovarian
LOX IMVI melanoma = test system: LOX IMVI melanoma
NCI-H460 lung = test system: NCI-H460 lung
ACHN renal = test system: ACHN renal
PC-3 prostate = test system: PC-3 prostate
A549 NSCLC = test system: A549 NSCLC
HT29 colon = test system: HT29 colon
HOP-62 NSCLC = test system: HOP-62 NSCLC
RXF 393 renal = test system: RXF 393 renal
SN12C renal = test system: SN12C renal
HS 578T breast = test system: HS 578T breast
CCRF-CEM leukemia = test system: CCRF-CEM leukemia
OVCAR-4 ovarian = test system: OVCAR-4 ovarian
MOLT-4 leukemia = test system: MOLT-4 leukemia
UO-31 renal = test system: UO-31 renal
SF-539 CNS = test system: SF-539 CNS
SNB-75 CNS = test system: SNB-75 CNS
OVCAR-8 ovarian = test system: OVCAR-8 ovarian
RPMI-8226 leukemia = test system: RPMI-8226 leukemia
TK-10 renal = test system: TK-10 renal
EKVX NSCLC = test system: EKVX NSCLC

COc1cc(Cl)cc(-c2nn(-c3cccc(NC(=O)c4cccc(C(F)(F)F)c4)c3)cc2-c2ccncc2)c1
> 100 µM: TGI (KM12 colon) | TGI (NCI-H226 lung) | TGI (MALME-3M melanoma) | TGI (HCT-15 colon) | TGI (UACC-257 melanoma) | TGI (CAKI-1 renal) | TGI (COLO 205 colon) | TGI (786-0 renal) | TGI (OVCAR-3 ovarian) | TGI (SK-OV-3 ovarian) | TGI (HL-60(TB) leukemia) | TGI (SW-620 colon) | TGI (M14 melanoma) | TGI (SNB-19 CNS) | TGI (NCI-H522 lung) | TGI (DU-145 prostate) | TGI (NCI/ADR-RES ovarian) | TGI (BT-549 breast) | TGI (T-47D breast) | TGI (UACC-62 melanoma) | TGI (SR leukemia) | TGI (MCF7 breast) | TGI (SK-MEL-28 melanoma) | TGI (SF-268 CNS) | TGI (U251 CNS) | TGI (SK-MEL-2 melanoma) | TGI (HCT-116 colon) | TGI (MDA-MB-435) | TGI (SK-MEL-5 melanoma) | TGI (IGROV1 ovarian) | TGI (SF-295 CNS) | TGI (K-562 leukemia) | TGI (NCI-H23 lung) | TGI (HCC-2998 colon) | TGI (OVCAR-5 ovarian) | TGI (LOX IMVI melanoma) | TGI (NCI-H460 lung) | TGI (ACHN renal) | TGI (PC-3 prostate) | TGI (A549 NSCLC) | TGI (HT29 colon) | TGI (HOP-62 NSCLC) | TGI (RXF 393 renal) | TGI (SN12C renal) | TGI (HS 578T breast) | TGI (CCRF-CEM leukemia) | TGI (OVCAR-4 ovarian) | TGI (MOLT-4 leukemia) | TGI (UO-31 renal) | TGI (SF-539 CNS) | TGI (SNB-75 CNS) | TGI (OVCAR-8 ovarian) | TGI (RPMI-8226 leukemia)
9.97 µM: TGI (MDA-MB-231 breast)
inactive: GI50 (KM12 colon) 4.53 µM | GI50 (NCI-H226 lung) > 100 µM | GI50 (MALME-3M melanoma) > 100 µM | GI50 (HCT-15 colon) 3.35 µM | GI50 (UACC-257 melanoma) > 100 µM | GI50 (CAKI-1 renal) 3.85 µM | GI50 (COLO 205 colon) 33.7 µM | GI50 (786-0 renal) 16.7 µM | GI50 (OVCAR-3 ovarian) 7.69 µM | GI50 (SK-OV-3 ovarian) > 100 µM | GI50 (HL-60(TB) leukemia) 45.9 µM | GI50 (SW-620 colon) > 100 µM | GI50 (M14 melanoma) 6.09 µM | GI50 (SNB-19 CNS) > 100 µM | GI50 (NCI-H522 lung) 1.99 µM | GI50 (DU-145 prostate) > 100 µM | GI50 (NCI/ADR-RES ovarian) 5.37 µM | GI50 (BT-549 breast) > 100 µM | GI50 (T-47D breast) 4.69 µM | GI50 (UACC-62 melanoma) 8.04 µM | GI50 (SR leukemia) 2.48 µM | GI50 (MDA-MB-231 breast) 1.38 µM | GI50 (MCF7 breast) 4.17 µM | GI50 (SK-MEL-28 melanoma) > 100 µM | GI50 (SF-268 CNS) > 100 µM | GI50 (U251 CNS) 5.56 µM | GI50 (SK-MEL-2 melanoma) 6.78 µM | GI50 (HCT-116 colon) 3.17 µM | GI50 (MDA-MB-435) > 100 µM | GI50 (SK-MEL-5 melanoma) 5.43 µM | GI50 (IGROV1 ovarian) > 100 µM | GI50 (SF-295 CNS) 3.91 µM | GI50 (K-562 leukemia) 4.69 µM | GI50 (NCI-H23 lung) 6.74 µM | GI50 (HCC-2998 colon) 6.66 µM | GI50 (OVCAR-5 ovarian) > 100 µM | GI50 (LOX IMVI melanoma) 15.7 µM | GI50 (NCI-H460 lung) 5.17 µM | GI50 (ACHN renal) 7.21 µM | GI50 (PC-3 prostate) 2.71 µM | GI50 (A549 NSCLC) 3.62 µM | GI50 (HT29 colon) 3.37 µM | GI50 (HOP-62 NSCLC) > 100 µM | GI50 (RXF 393 renal) 1.87 µM | GI50 (SN12C renal) > 100 µM | GI50 (HS 578T breast) > 100 µM | GI50 (CCRF-CEM leukemia) 4.38 µM | GI50 (OVCAR-4 ovarian) > 100 µM | GI50 (MOLT-4 leukemia) 2.78 µM | GI50 (UO-31 renal) 2.71 µM | GI50 (SF-539 CNS) > 100 µM | GI50 (SNB-75 CNS) 6.62 µM | GI50 (OVCAR-8 ovarian) 6.88 µM | GI50 (RPMI-8226 leukemia) 3.13 µM

O=C(C(Cl)Cl)N(O)c1ccccc1OCc1ccccc1
69.2 µM: TGI (RPMI-8226 leukemia)
39 µM: TGI (CCRF-CEM leukemia)
48.8 µM: TGI (EKVX NSCLC)
1.43 µM: TGI (BT-549 breast)
63.5 µM: TGI (OVCAR-8 ovarian)
92.2 µM: TGI (UACC-62 melanoma)
68 µM: TGI (COLO 205 colon)
45.5 µM: TGI (DU-145 prostate)
78.9 µM: TGI (OVCAR-4 ovarian)
51.8 µM: TGI (T-47D breast)
61.7 µM: TGI (HS 578T breast)
6.89 µM: TGI (HCC-2998 colon)
> 100 µM: TGI (KM12 colon) | TGI (NCI-H226 lung) | TGI (MALME-3M melanoma) | TGI (HCT-15 colon) | TGI (CAKI-1 renal) | TGI (786-0 renal) | TGI (OVCAR-3 ovarian) | TGI (SK-OV-3 ovarian) | TGI (HL-60(TB) leukemia) | TGI (M14 melanoma) | TGI (SNB-19 CNS) | TGI (NCI/ADR-RES ovarian) | TGI (SR leukemia) | TGI (MDA-MB-231 breast) | TGI (MCF7 breast) | TGI (SK-MEL-28 melanoma) | TGI (SF-268 CNS) | TGI (U251 CNS) | TGI (SK-MEL-2 melanoma) | TGI (HCT-116 colon) | TGI (MDA-MB-435) | TGI (IGROV1 ovarian) | TGI (TK-10 renal) | TGI (SF-295 CNS) | TGI (K-562 leukemia) | TGI (NCI-H23 lung) | TGI (OVCAR-5 ovarian) | TGI (LOX IMVI melanoma) | TGI (NCI-H460 lung) | TGI (ACHN renal) | TGI (PC-3 prostate) | TGI (A549 NSCLC) | TGI (HT29 colon) | TGI (HOP-62 NSCLC) | TGI (RXF 393 renal) | TGI (SN12C renal) | TGI (MOLT-4 leukemia) | TGI (UO-31 renal) | TGI (SF-539 CNS) | TGI (SNB-75 CNS)
82.4 µM: TGI (NCI-H522 lung)
63.9 µM: TGI (UACC-257 melanoma)
68.1 µM: TGI (SW-620 colon)
